Laboratory results from patent US11279714B2, “Anti-infective compounds” (priority 2014, dated 2022).
Converted amounts (≈) assume the structure as drawn.

What was measured:
[1] = tested on: Raw 264.7 cells infected with H37Rv-GFP; experiment: microbe, parasite or virus in culture; format: cell-based, M. tuberculosis; conditions: Mycobacterium tuberculosis, H37RV, 120 h; read-out: QIM (MIC50)
[2] = tested on: M. tuberculosis H37Rv expressing the green fluorescent protein (H37Rv-GFP); experiment: microbe, parasite or virus in culture; format: cell-based; conditions: Mycobacterium tuberculosis, H37RV, 120 h; read-out: QUM (MIC50)

SMILES: O=C(Nc1ccc(OC(F)(F)F)cc1)c1cc2nc(N3CCCCC3)sc2s1 [Compound 14]
- MIC50 [1]: < 1 µM
- MIC50 [2]: 1 to 20 µM (≈ 0.427 to 8.55 µg/mL)
- melting point: 238 °C

SMILES: Cn1ncc2ccc(NC(=O)c3cc4sc(N5CCOCC5)nc4s3)cc21 [Compound 131]
- MIC50 [1]: > 20 µM
- MIC50 [2]: > 20 µM
- melting point: 288 °C

SMILES: O=C(Nc1ccc(Cl)cc1)c1cc2nc(N3CCCCC3)sc2s1 [Compound 29]
- MIC50 [1]: 1 to 20 µM (≈ 0.378 to 7.56 µg/mL)
- MIC50 [2]: 1 to 20 µM (≈ 0.378 to 7.56 µg/mL)
- melting point: 230 °C

SMILES: COc1cc(NC(=O)c2cc3sc(N4CCCCC4)nc3s2)cc(OC)c1 [Compound 37]
- MIC50 [1]: > 20 µM
- MIC50 [2]: > 20 µM
- melting point: 148 °C

SMILES: O=C(Nc1ccc(F)c(F)c1)c1cc2nc(N3CCCCC3)sc2s1 [Compound 3]
- MIC50 [1]: < 1 µM
- MIC50 [2]: 1 to 20 µM (≈ 0.379 to 7.59 µg/mL)
- melting point: 246.3 °C

SMILES: COc1cc(NC(=O)c2cc3nc(N4CCCCC4)sc3s2)cc(OC)c1 [Compound 4]
- MIC50 [1]: > 20 µM
- MIC50 [2]: > 20 µM
- melting point: 231.2 °C

SMILES: Cn1cnc2ccc(NC(=O)c3cc4sc(N5CCOCC5)nc4s3)cc21 [Compound 117]
- MIC50 [1]: > 20 µM
- MIC50 [2]: > 20 µM
- melting point: 314 °C

SMILES: COCn1c(N2CCOCC2)nc2sc(C(=O)Nc3ccc4oc(C)nc4c3)cc21 [Compound 179]
- MIC50 [1]: > 20 µM
- MIC50 [2]: > 20 µM
- melting point: 117.2 °C

SMILES: COc1c(C(=O)Nc2ccc3oc(C)nc3c2)sc2nc(N3CCOCC3)sc12 [Compound 172]
- MIC50 [1]: > 20 µM
- MIC50 [2]: > 20 µM
- melting point: 269 °C

SMILES: Cc1nc2cc(NC(=O)c3cc4sc(N5CCCC(C(=O)N(C)C)C5)nc4s3)ccc2o1 (stereo not drawn) [Compound 178]
- MIC50 [1]: 1 to 20 µM (≈ 0.47 to 9.39 µg/mL)
- MIC50 [2]: 1 to 20 µM (≈ 0.47 to 9.39 µg/mL)
- melting point: 133.6 °C

SMILES: Cc1nc2cc(NC(=O)c3cc4sc(N5CCC(C(=O)NCc6ccccc6)CC5)nc4s3)ccc2o1 [Compound 186]
- MIC50 [1]: < 1 µM
- MIC50 [2]: > 20 µM
- melting point: 264.9 °C

SMILES: CC1CCN(c2ccc(NC(=O)c3cc4sc(N5CCOCC5)nc4s3)cc2)CC1 [Compound 194]
- MIC50 [1]: < 1 µM
- MIC50 [2]: 1 to 20 µM (≈ 0.443 to 8.85 µg/mL)
- melting point: 278 °C

SMILES: Cc1nc2cc(NC(=O)N3CCc4sc(N5CCOCC5)cc4C3)ccc2o1 [Compound 191]
- MIC50 [1]: > 20 µM
- MIC50 [2]: > 20 µM
- melting point: 171.7 °C

SMILES: Cc1nc2cc(NC(=O)c3cc4sc(N5CC(C)OC(C)C5)nc4s3)ccc2o1 (stereo not drawn) [Compound 180]
- MIC50 [1]: < 1 µM
- MIC50 [2]: 1 to 20 µM (≈ 0.429 to 8.57 µg/mL)
- melting point: 274 °C

SMILES: COc1ccc(OC(=O)c2ccc(NC(=O)c3cc4sc(N5CCOCC5)nc4s3)cc2)cc1 [Compound 111]
- MIC50 [1]: < 1 µM
- MIC50 [2]: 1 to 20 µM (≈ 0.496 to 9.91 µg/mL)
- melting point: 302.6 °C

SMILES: Cc1nc2cc(NC(=O)c3cc4sc(N5CCC(C(=O)N(C)C)CC5)nc4s3)ccc2o1 [Compound 138]
- MIC50 [1]: < 1 µM
- MIC50 [2]: < 1 µM
- melting point: 284.2 °C

SMILES: Cn1cc2ccc(NC(=O)c3cc4sc(N5CCOCC5)nc4s3)cc2n1 [Compound 132]
- MIC50 [1]: < 1 µM
- MIC50 [2]: > 20 µM
- melting point: 313.7 °C

SMILES: O=C(Nc1ccc(F)c(F)c1)c1ccc2nc(N3CCCCC3)ccc2c1 [Compound 16]
- MIC50 [1]: > 20 µM
- MIC50 [2]: > 20 µM
- melting point: 194 °C

SMILES: COc1ccc(NCc2cc3sc(N4CCCCC4)nc3s2)cc1 [Compound 69]
- MIC50 [1]: > 20 µM
- MIC50 [2]: > 20 µM
- melting point: 105 °C

SMILES: COc1ccc(NC(=O)c2cc3sc(N4CCC(OCc5ccccc5)CC4)nc3s2)cc1 [Compound 77]
- MIC50 [1]: < 1 µM
- MIC50 [2]: 1 to 20 µM (≈ 0.48 to 9.59 µg/mL)
- melting point: 190.3 °C

SMILES: CN(C)C(=O)C1CCN(c2nc3sc(C(=O)Nc4ccc(F)cc4)cc3s2)CC1 [Compound 136]
- MIC50 [1]: < 1 µM
- MIC50 [2]: < 1 µM
- melting point: 296.2 °C

SMILES: O=C(Nc1ccc(CN2CCN(c3ccc(Cl)cc3)CC2)cc1)c1cc2sc(N3CCOCC3)nc2s1 [Compound 199]
- MIC50 [1]: < 1 µM
- MIC50 [2]: 1 to 20 µM (≈ 0.554 to 11.1 µg/mL)
- melting point: 249.9 °C

SMILES: COC(=O)C1CCC(NC(=O)c2cc3sc(N4CCCCC4)nc3s2)CC1 (stereo not drawn) [Compound 60]
- MIC50 [1]: 1 to 20 µM (≈ 0.408 to 8.15 µg/mL)
- MIC50 [2]: 1 to 20 µM (≈ 0.408 to 8.15 µg/mL)
- melting point: 74 °C

SMILES: COc1ncc(NC(=O)c2cc3nc(N4CCCCC4)sc3s2)cn1 [Compound 6]
- MIC50 [1]: 1 to 20 µM (≈ 0.375 to 7.51 µg/mL)
- MIC50 [2]: 1 to 20 µM (≈ 0.375 to 7.51 µg/mL)
- melting point: 274 °C

SMILES: O=C(Nc1ccc(F)nc1)c1cc2sc(N3CCC(CO)CC3)nc2s1 [Compound 143]
- MIC50 [1]: < 1 µM
- MIC50 [2]: < 1 µM
- melting point: 240.8 °C

SMILES: O=C(Nc1ccc(F)cc1)c1cc2sc(N3CCCCC3)nc2s1 [Compound 53]
- MIC50 [1]: < 1 µM
- MIC50 [2]: < 1 µM
- melting point: 233 °C

SMILES: Cc1nc2cc(NC(=O)c3cc4sc(N5CCOC(C(=O)N(C)C)C5)nc4s3)ccc2o1 (stereo not drawn) [Compound 169]
- MIC50 [1]: 1 to 20 µM (≈ 0.472 to 9.43 µg/mL)
- MIC50 [2]: 1 to 20 µM (≈ 0.472 to 9.43 µg/mL)
- melting point: 247.5 °C

SMILES: O=C(Nc1ccc(-c2cc3n(n2)CCO3)cc1)c1cc2sc(N3CCOCC3)nc2s1 [Compound 164]
- MIC50 [1]: > 20 µM
- MIC50 [2]: > 20 µM
- melting point: 361.2 °C

SMILES: O=C(Nc1ccc(-c2cc[nH]n2)cc1)c1cc2sc(N3CCOCC3)nc2s1 [Compound 156]
- MIC50 [1]: < 1 µM
- MIC50 [2]: 1 to 20 µM (≈ 0.412 to 8.23 µg/mL)
- melting point: 319 °C

SMILES: CC(C)(C)OC(=O)c1ccc(NC(=O)c2cc3sc(N4CCOCC4)nc3s2)cc1 [Compound 129]
- MIC50 [1]: < 1 µM
- MIC50 [2]: 1 to 20 µM (≈ 0.446 to 8.91 µg/mL)
- melting point: 244 °C

SMILES: O=C(Nc1ccc(O)cc1)c1cc2nc(N3CCCCC3)sc2s1 [Compound 18]
- MIC50 [1]: > 20 µM
- MIC50 [2]: 1 to 20 µM (≈ 0.359 to 7.19 µg/mL)
- melting point: 266 °C

SMILES: N#Cc1ccc(NC(=O)c2cc3nc(N4CCCCC4)sc3s2)cc1 [Compound 32]
- MIC50 [1]: < 1 µM
- MIC50 [2]: 1 to 20 µM (≈ 0.368 to 7.37 µg/mL)
- melting point: 163 °C

SMILES: Cc1nc2cc(NC(=O)c3cc4sc(N5CCNCC5)nc4s3)ccc2o1 [Compound 140]
- MIC50 [1]: 1 to 20 µM (≈ 0.4 to 7.99 µg/mL)
- MIC50 [2]: 1 to 20 µM (≈ 0.4 to 7.99 µg/mL)
- melting point: 235.3 °C

SMILES: O=C(Nc1ccc2ncccc2c1)c1cc2sc(N3CCCCC3)nc2s1 [Compound 40]
- MIC50 [1]: < 1 µM
- MIC50 [2]: 1 to 20 µM (≈ 0.395 to 7.89 µg/mL)
- melting point: 279.5 °C

SMILES: O=C(Nc1ccc(-c2ccn(C3CCCCO3)n2)cc1)c1cc2sc(N3CCOCC3)nc2s1 (stereo not drawn) [Compound 155]
- MIC50 [1]: < 1 µM
- MIC50 [2]: > 20 µM
- melting point: 293 °C

SMILES: Cc1nc2cc(NC(=O)c3cc4sc(N5CCOC(c6ccccc6)C5)nc4s3)ccc2o1 (stereo not drawn) [Compound 174]
- MIC50 [1]: < 1 µM
- MIC50 [2]: 1 to 20 µM (≈ 0.477 to 9.53 µg/mL)
- melting point: 223.5 °C

SMILES: CN(C)C(=O)C1CCN(c2nc3sc(C(=O)n4nc(-c5ccc(N)cc5)cc4O)cc3s2)CC1 [Compound 198]
- MIC50 [1]: > 20 µM
- MIC50 [2]: > 20 µM
- melting point: 269 °C

SMILES: O=C(c1cc2sc(N3CCOCC3)nc2s1)N1CCC(Cc2ccc(Cl)cc2)CC1 [Compound 173]
- MIC50 [1]: > 20 µM
- MIC50 [2]: > 20 µM
- melting point: 167.2 °C

SMILES: O=C(Nc1cccc(OCc2ccccc2)c1)c1cc2sc(N3CCOCC3)nc2s1 [Compound 109]
- MIC50 [1]: > 20 µM
- MIC50 [2]: > 20 µM
- melting point: 223.4 °C

SMILES: COc1ccc(NC(=O)c2cc3sc(NC4CCCC4)nc3s2)cc1 [Compound 90]
- MIC50 [1]: < 1 µM
- MIC50 [2]: < 1 µM
- melting point: 239.3 °C

SMILES: COc1ccc(NC(=O)c2cc3nc(N4CCCCC4)sc3s2)cn1 [Compound 10]
- MIC50 [1]: > 20 µM
- MIC50 [2]: > 20 µM
- melting point: 270 °C

SMILES: Cc1cc2cc(NC(=O)c3cc4sc(N5CCOCC5)nc4s3)ccc2o1 [Compound 135]
- MIC50 [1]: < 1 µM
- MIC50 [2]: 1 to 20 µM (≈ 0.399 to 7.99 µg/mL)
- melting point: 231.3 °C

SMILES: COc1ccc(NC(=O)c2cc3sc(NC4CCCCC4)nc3s2)cc1 [Compound 79]
- MIC50 [1]: < 1 µM
- MIC50 [2]: > 20 µM
- melting point: 231 °C

SMILES: O=C(Nc1ccc(Oc2ccccc2)cc1)c1cc2nc(N3CCCCC3)sc2s1 [Compound 15]
- MIC50 [1]: > 20 µM
- MIC50 [2]: > 20 µM
- melting point: 225.8 °C

SMILES: O=C(c1cc2nc(N3CCCCC3)sc2s1)N1CCOCC1 [Compound 26]
- MIC50 [1]: > 20 µM
- MIC50 [2]: > 20 µM
- melting point: 188 °C

SMILES: Cc1nc2ccc(NC(=O)c3cc4sc(N5CCCCC5)nc4s3)cc2o1 [Compound 48]
- MIC50 [1]: < 1 µM
- MIC50 [2]: < 1 µM
- melting point: 259.2 °C
